Test results from publication PMC10349193 (CPT: Pharmacometrics & Systems Pharmacology, 2023).
Converted amounts (≈) assume the structure as drawn. “And” between values parts separate entries of the source, which are not always exact repeats. Identical values can stand only once. Like-named read-outs stand apart in the source and are kept apart here. Blank lines part the entries; values can stand above or below the compound they belong to.

Assays:
ABCC4 = settings: apical, ref SimCYP library version 19, cited from earlier work
SLC22A8 = settings: basal, ref SimCYP library version 19, cited from earlier work
SLC47As = settings: apical, ref SimCYP library version 19, cited from earlier work
[1] = model input; ref SimCYP library version 19; cited from earlier work
[2] = set-up: method as in SimCYP library version 19; settings: ref SimCYP library version 19, cited from earlier work
Caco-2 = settings: ref SimCYP library version 19, cited from earlier work
[3] = model input; ref SimCYP library version 19; cited from earlier work; remark: listed apart in the source
CYP2D6 = settings: ref SimCYP library version 19, cited from earlier work
SLC22A2 = settings: basal, ref SimCYP library version 19, cited from earlier work
proximal tubular cells = settings: Mech KiM; ref SimCYP library version 19; cited from earlier work
[4] = ref SimCYP library version 19, cited from earlier work; for Volume [Vsac] / kin / kout: single adjusting compartment; for Vss: minimal PBPK model
CYP1A2 = system: CYP1A2; set-up: method as in SimCYP library version 19; settings: ref SimCYP library version 19, cited from earlier work; for CYP1A2 CLint: recombinant enzyme kinetics
[5] = model input; ref SimCYP library version 19; cited from earlier work; remark: listed apart in the source
CYP3A4 [6] = system: CYP3A4; set-up: method as in SimCYP library version 19; settings: ref SimCYP library version 19, cited from earlier work
CYP2B6 [7] = settings: ref SimCYP library version 19, cited from earlier work
CYP2A6 = settings: ref SimCYP library version 19, cited from earlier work
CYP2B6 [8] = system: CYP2B6; set-up: method as in SimCYP library version 19; settings: ref SimCYP library version 19, cited from earlier work
CYP2C19 = settings: ref SimCYP library version 19, cited from earlier work
CYP3A4 [9] = settings: cited from earlier work
CYP2C8 = system: CYP2C8; set-up: method as in SimCYP library version 19; settings: ref SimCYP library version 19, cited from earlier work
CYP2C9 = settings: ref SimCYP library version 19, cited from earlier work
CYP3A4 [10] = settings: ref NCT01468714, cited from earlier work; for Increase of PB‐201 systemic exposure on co‐administration with ketoconazole: clinical DDI study, strong CYP3A4 inhibitor
CYP3A5 = system: CYP3A5; set-up: method as in SimCYP library version 19; settings: ref SimCYP library version 19, cited from earlier work
MDCK II = settings: fluvoxamine file with reference compounds; ref SimCYP library version 19; cited from earlier work
[11] = Apparent permeability in Caco-2 monolayers; assay type: in vitro ADME; settings: human, Caco‐2, 10 μM; for Papp A→B at 2 h, 10 μM: read-out: P app,AP→BL, without inhibitor; for Papp B→A at 2 h, 10 μM: read-out: P app,BL→AP, without inhibitor; for efflux ratio at 2 h, 10 μM: read-out: Efflux ratio P app,BL→AP/AP→BL, without inhibitor
P-gp [12] = target: T1, P-gp (Homo sapiens, UniProt P08183); experiment: P-gp substrate assessment in Caco-2 monolayers with verapamil; assay type: in vitro ADME; settings: Caco-2, with verapamil (concentration not stated), read-out: Efflux ratio P app,BL→AP/AP→BL, with inhibitor
T1 construct: endogenous in cells; host or cells: Caco-2
T1 sequence (P08183 whole entry): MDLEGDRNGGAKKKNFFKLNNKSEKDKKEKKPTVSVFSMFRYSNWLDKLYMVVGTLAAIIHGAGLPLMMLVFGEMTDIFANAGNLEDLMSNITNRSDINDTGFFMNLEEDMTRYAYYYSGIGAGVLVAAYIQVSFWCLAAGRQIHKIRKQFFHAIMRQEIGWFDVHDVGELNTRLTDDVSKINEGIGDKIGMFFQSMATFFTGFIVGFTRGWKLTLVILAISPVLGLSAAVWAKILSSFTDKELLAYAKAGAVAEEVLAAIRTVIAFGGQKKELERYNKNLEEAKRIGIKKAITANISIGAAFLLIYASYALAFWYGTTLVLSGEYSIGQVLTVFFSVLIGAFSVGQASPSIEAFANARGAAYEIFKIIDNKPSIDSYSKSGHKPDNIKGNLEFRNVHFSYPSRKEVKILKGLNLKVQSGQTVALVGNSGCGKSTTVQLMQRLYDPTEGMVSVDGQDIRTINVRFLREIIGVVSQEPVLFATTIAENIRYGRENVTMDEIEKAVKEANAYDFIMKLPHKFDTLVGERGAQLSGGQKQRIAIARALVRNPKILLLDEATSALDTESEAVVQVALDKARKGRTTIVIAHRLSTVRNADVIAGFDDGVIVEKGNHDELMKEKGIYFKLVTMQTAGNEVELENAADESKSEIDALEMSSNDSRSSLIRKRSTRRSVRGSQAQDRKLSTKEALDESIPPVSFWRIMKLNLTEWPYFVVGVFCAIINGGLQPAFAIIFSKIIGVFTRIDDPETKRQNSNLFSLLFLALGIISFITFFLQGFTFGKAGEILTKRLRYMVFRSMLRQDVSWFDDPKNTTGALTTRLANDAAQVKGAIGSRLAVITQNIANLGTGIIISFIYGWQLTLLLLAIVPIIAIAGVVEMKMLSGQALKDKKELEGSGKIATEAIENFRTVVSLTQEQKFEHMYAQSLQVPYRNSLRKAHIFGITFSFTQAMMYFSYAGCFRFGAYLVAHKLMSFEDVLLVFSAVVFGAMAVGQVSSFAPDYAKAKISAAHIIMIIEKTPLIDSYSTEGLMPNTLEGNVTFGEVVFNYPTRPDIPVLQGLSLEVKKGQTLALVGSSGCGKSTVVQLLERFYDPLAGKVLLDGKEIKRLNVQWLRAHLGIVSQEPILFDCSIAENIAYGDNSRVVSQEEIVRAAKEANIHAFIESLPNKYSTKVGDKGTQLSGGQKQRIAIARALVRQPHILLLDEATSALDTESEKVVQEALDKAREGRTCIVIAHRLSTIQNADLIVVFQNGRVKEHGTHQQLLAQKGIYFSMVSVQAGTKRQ

P-gp [13] = system: T2, P-gp; experiment: as above; assay type: in vitro ADME; settings: human, Caco-2, with verapamil (concentration not stated); for Papp A→B at 2 h, 10 μM: read-out: P app,AP→BL, with inhibitor; for Papp B→A at 2 h, 10 μM: read-out: P app,BL→AP, with inhibitor
T2 construct: endogenous in cells; host or cells: Caco-2

OATP1B1 = system: OATP1B1; set-up: method as in unpublished; settings: ref unpublished; cited from earlier work
[14] = cited from earlier work
CYP3A4 [15] = experiment: Clinical DDI study of PB-201 with ketoconazole (NCT01468714); assay type: in vivo, human; settings: inferred from clinical DDI study with strong CYP3A inhibitor
[16] = Physicochemical properties
[17] = set-up: method as in earlier work; settings: bile duct‐cannulated rats; cited from earlier work
[18] = Allometric scaling of clearance; settings: rats, dogs, and monkeys; clearance (intravenous), body weight, plasma unbound fraction
[19] = cited from earlier work; remark: listed apart in the source
OATP1B3 = system: OATP1B3; set-up: method as in unpublished; settings: ref unpublished; cited from earlier work
[20] = Clinical pharmacokinetic studies of PB-201; assay type: in vivo; settings: humans
[21] = competitive inhibition, unit inferred

SMILES: CN/C(=N/CCSCc1nc[nH]c1C)NC#N [Cimetidine]
- ABCC4 Jmax (ABCC4): 216
- Km (ABCC4; read-out: ABCC4 Km): 18.2 µM
- SLC22A8 Jmax (SLC22A8): 1232
- Km (SLC22A8; read-out: SLC22A8 Km): 162 µM
- SLC47As Jmax (SLC47As): 135.5
- Km (SLC47As; read-out: SLC47As Km): 7.7 µM
- Lag time [1]: 0.15/28 h
- fa [1]: 0.92/30
- fuGut [1]: 1
- ka [1]: 0.7/18 1/h
- CLR [2]: 31.6 L/h
- Reference compound Papp (Caco-2; Caco-2 pH 6.5: pH 7.4, references of fluconazole file, unit not given): 3.06
- Fraction unbound in plasma [3]: 0.8
- Ki (CYP2D6; read-out: CYP2D6 Ki, competitive inhibition): 3500 nM
- fumic (CYP2D6 inhibition) (CYP2D6): 1
- SLC22A2 Jmax (SLC22A2): 2170
- Km (SLC22A2; read-out: SLC22A2 Km): 72.6 µM
- CLPD,apical (proximal tubular cells): 2.61E-05 mL/min/million proximal tubular cells
- CLPD,basal (proximal tubular cells): 2.61E-05 mL/min/million proximal tubular cells
- fuKidney cell (proximal tubular cells): 1
- fuUrine (proximal tubular cells): 1

SMILES: O=C1Nc2ccc(Cl)cc2[C@@](C#CC2CC2)(C(F)(F)F)O1 [Efavirenz]
- Log P [5]: 4.02
- PSA [5]: 38.33 A^2
- CYP2B6 CLint (CYP2B6 [7]; recombinant enzyme kinetics): 1.36 μL/min/pmol of isoform

SMILES: OC(Cn1cncn1)(Cn1cncn1)c1ccc(F)cc1F [Fluconazole]
- Ki (CYP2C19; read-out: CYP2C19 Ki, competitive inhibition): 2000 nM
- fumic (CYP2C19 inhibition) (CYP2C19): 1
- Vss [4]: 0.76 L/kg
- Volume [Vsac] [4]: 1e-05 L/kg
- CLR [2]: 0.86 L/h
- Caco-2 Papp (Caco-2; pH 6.5: pH 7.4, Passive&Active, fluconazole file): 29.8 10^-6 cm/s

SMILES: CCC(C)n1ncn(-c2ccc(N3CCN(c4ccc(OCC5COC(Cn6cncn6)(c6ccc(Cl)cc6Cl)O5)cc4)CC3)cc2)c1=O (stereo not shown) [Itraconazole]
- Volume [Vsac] [4]: 1e-05 L/kg
- kin [4]: 0 h⁻¹
- CYP1A2 CLint (CYP1A2): 1/1 μL/min/pmol
- fumic (CYP1A2 metabolism) (CYP1A2): 1/1
- Log P [5]: 4.47
- CYP3A4 Vmax (CYP3A4 [6]; recombinant enzyme kinetics): 0.065 pmol/min/pmol of isoform
- fumic (CYP3A4 metabolism) (CYP3A4 [6]): 1
- Lag time [1]: 0/30 h
- QGut [1]: 18.32/12
- fa [1]: 0.59/30
- fuGut [1]: 0.016
- ka [1]: 0.6/30 1/h
- Fraction unbound in plasma [3]: 0.016
- fumic (CYP3A4 inhibition) (CYP3A4 [9]; ref SimCYP library version 19): 1

SMILES: CC(=O)N1CCN(c2ccc(OCC3COC(Cn4ccnc4)(c4ccc(Cl)cc4Cl)O3)cc2)CC1 (stereo not shown) [Ketoconazole]
- Vss [4]: 0.345 L/kg
- PSA [5]: 69.06 A^2
- Fraction unbound in plasma [3]: 0.029

SMILES: COCCc1ccc(OCC(O)CNC(C)C)cc1 (stereo not shown) [Metoprolol]
- Caco-2 Papp (Caco-2; pH 7.4: pH 7.4, Passive&Active, erythromycin file with reference compounds): 145 10^-6 cm/s
- MDCK II Papp (MDCK II): 29.6 10^-6 cm/s

- Papp A→B at 2 h, 10 μM [11]: 0.721 ×10⁻⁶ cm/s
- Papp B→A at 2 h, 10 μM [11]: 0.634 ×10⁻⁶ cm/s
- efflux ratio at 2 h, 10 μM [11]: 0.88
- efflux ratio at 2 h, 10 μM (P-gp [12]): 0.554
- Papp A→B at 2 h, 10 μM (P-gp [13]): 0.657 ×10⁻⁶ cm/s
- Papp B→A at 2 h, 10 μM (P-gp [13]): 0.364 ×10⁻⁶ cm/s
SMILES: CC(C)(C)NCC(O)COc1cccc2c1CC(O)C(O)C2 (stereo not shown) [Nadolol]

- f m of CYP2C9 in vivo (CYP3A4 [15]): less than 25%
- logP [16]: 1.38
- pKa [16]: 10.4
- solubility (physchem): ~3 µg/mL (≈ 6.94 µM)
- CL renal ([20]; human, urine, oral, from a clinical trial, source Measured, read-out: Typical renal clearance (converted)): 1.65 mL/min
SMILES: Cc1cnc(NC(=O)c2cc(Oc3cnc(C(=O)N(C)C)nc3)c3cc(C)oc3c2)cn1 [PB‐201, N,N‐dimethyl‐5‐(2‐methyl‐6‐((5‐methylpyrazin‐2‐yl)‐carbamoyl) benzofuran‐4‐yloxy)pyrimidine‐2‐carboxamide]
- OATP1B1 substrate assessment (OATP1B1): not a specific substrate
- Overall total incidence of hypoglycemia ([14]; clinical studies, exposure‐response relationship, ref unpublished): about 3%
- Safety and tolerability in clinical studies ([14]; dose range of 3–640 mg): safe and tolerable
- Contribution of biliary excretion to elimination [17]: about 2.3%
- Allometric exponent (b) [18]: about 0.74
- Food effect on systemic exposure ([19]; fed (NCT01513928) vs fasted (NCT01272804), same dose, ref NCT01513928): significantly increase
- Volume of distribution based on the terminal phase ([19]; humans, 100 mg, ref NCT01044537): ~ 254.4 L
- Time (median) to reach maximum plasma concentration ([19]; humans, after multiple doses, ref NCT01272804): 2 to 3 h
- Unchanged drug in the urine ([19]; humans, ref NCT01272804): < 1%
- OATP1B3 substrate assessment (OATP1B3): not a specific substrate
- Increase of PB‐201 systemic exposure on co‐administration with ketoconazole (CYP3A4 [10]): about 26.4%
- Contribution (f m) of CYP3A4 to PB‐201 elimination in vivo (CYP3A4 [10]; humans, fasted state, from clinical DDI study): ~ 26.4% and 26.4%
- Observed distribution volume ([20]; assuming bioavailability 68% and body weight ~76.89 kg): 1.983 L/kg

- Papp A→B at 2 h, 10 μM [11]: 0.0798 ×10⁻⁶ cm/s
- Papp B→A at 2 h, 10 μM [11]: 0.56 ×10⁻⁶ cm/s
- efflux ratio at 2 h, 10 μM [11]: 7.02
- efflux ratio at 2 h, 10 μM (P-gp [12]): 1.09
- Papp A→B at 2 h, 10 μM (P-gp [13]): 1.17 ×10⁻⁶ cm/s
- Papp B→A at 2 h, 10 μM (P-gp [13]): 1.28 ×10⁻⁶ cm/s
SMILES: CC(=O)O[C@H]1C(=O)[C@@]2(C)[C@H]([C@H](OC(=O)c3ccccc3)[C@]3(O)C[C@H](OC(=O)[C@H](O)[C@@H](NC(=O)c4ccccc4)c4ccccc4)C(C)=C1C3(C)C)[C@]1(OC(C)=O)CO[C@@H]1C[C@@H]2O [Taxol]
